The METLIN SMRT retention time set (Domingo-Almenara et al. 2019)

Assay: gradient 5% acetonitrile 3 min, to 50% in 2 min, to 85% in 15 min, held 3 min, 100 µL/min
Conditions: column: Zorbax Extend-C18 2.1 x 50 mm; eluents: water / acetonitrile, 0.1% formic acid
Summary of the method: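 Each retention time is based on an adduct peak selected computationally and verified by manual inspection. Measurements used HPLC–quadrupole time-of-flight mass spectrometry in positive and negative ionization mode on mixtures of ~100 pure standards. Chromatography ran on a Zorbax Extend-C18 column (2.1 × 50 mm, 1.8 μm) at 100 μL/min with water and acetonitrile, each containing 0.1% formic acid, and dead and dwell volumes of 40 μL and 900 μL.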

In order of falling RP-LC retention time:
1. O=c1c2sccc2n(Cc2nc(-c3ccc(Br)cc3)no2)c(=O)n1Cc1ccccc1  1200 s
2. Fc1ccc(-c2nc(-c3ccc(-n4cccn4)nc3)no2)c(F)c1  1170 s
3. COc1ccc2c(c1)CCc1sc(NC(=O)c3ccc(Cl)cc3)nc1-2  1160 s
4. CC1(C)Cc2c(C#N)c(N3CCN(C(=O)c4ccc([N+](=O)[O-])cc4)CC3)nc(-c3ccccc3)c2CO1  1140 s
5. CCCn1nnc2cc(-c3noc(COc4ccc(Cl)cc4)n3)ccc21  1120 s
6. Cc1cc2nn(CC(=O)N(C)C3CCCCC3)c(=O)n2c(Nc2ccccc2C)n1  1110 s
7. Cc1cccc(Cn2ccc3ccn(CC(=O)N4CCOc5ccc(C)cc54)c(=O)c32)c1  1090 s
8. N#Cc1cccc(C(=O)N2CCCC2c2nc(-c3cccc(C(F)(F)F)c3)no2)c1 (centres undefined)  1050 s
9. CCC(=O)N1CCc2c(-c3ccc(OC)cc3)cccc2[C@H]1C  1030 s
10. c1cc(-c2noc(C3CCCCC3)n2)cc(N2CCOCC2)n1  1010 s
11. CCOc1cc(C(=O)N2CCCC(C)(C(=O)NCc3ccc(C)cc3)C2)cc(OCC)c1OCC (centres undefined)  1010 s
12. Cc1ccc(Cl)cc1N1CCN(C(=O)c2csc(C(=O)NC3CC3)n2)CC1  972 s
13. CCn1c(=O)sc2cc(S(=O)(=O)N3CCC(C(=O)NC4CCCc5ccccc54)CC3)ccc21 (centres undefined)  957 s
14. O=C1C(c2cccs2)N(Cc2ccc3c(c2)OCO3)C(=O)CN1c1ccccc1 (centres undefined)  899 s
15. CCc1ccc(-c2nc(-c3ccc(-n4ccnc4)nc3)no2)cc1  882 s
16. CCCN(C(=O)c1cccc(NC(=O)[C@H]2[C@@H]3C[C@@H]4[C@H]2C(=O)O[C@@H]4C3)c1)c1ccccc1F  853 s
17. COCCN(CCOC)c1nc(-c2ccc([N+](=O)[O-])cc2)nc2ccccc12  849 s
18. CN1C(=O)c2cc(C(=O)NCCCc3ccccc3)nn2CC1(C)C(=O)NC1CCCC1 (centres undefined)  826 s
19. O=C(c1cnccn1)N1[C@H]2CC[C@@H]1c1cnc(-c3ccccc3)nc1C2  807 s
20. COc1ccc(OC)c(NC(=O)N2CCC(CC(=O)NCc3ccc(F)cc3)CC2)c1  803 s
21. O=C(NCCCn1c(C(F)(F)F)nc2cccnc21)Nc1ccccc1  776 s
22. CC(C)n1c(=O)sc2cc(S(=O)(=O)N3CCC(C(=O)NCC4CCCO4)CC3)ccc21 (centres undefined)  762 s
23. COc1ccccc1CNC1=NCCNC12CCN(S(=O)(=O)c1ccccc1)CC2  692 s
24. COc1cc(-c2oc3cc(O)ccc3c(=O)c2O)ccc1O  687 s
25. CCOC(=O)c1ccc(NC(=O)CSc2ccc(N3CCCC(C(=O)NC4CC4)C3)nn2)cc1 (centres undefined)  678 s
26. COCCCNC(=O)c1nc(Nc2ccccc2)c2ccccc2n1  664 s
27. Cn1cc(CCNC(=O)c2ccccc2Br)c2cccnc21  660 s
28. CCn1c(CN(C)C(=O)Nc2ccc(Br)cc2)nc2cc(C(=O)N(C)C)ccc21  657 s
29. c1ccc2c(c1)Nc1ccncc1S2  634 s
30. COc1cc(CNC(=O)CCc2c(-c3ccc(F)cc3)nc3ccccn23)cc(OC)c1OC  632 s
31. CCCCNC(=O)C(=O)NCC(c1ccc2c(c1)OCO2)N1CCOCC1 (centres undefined)  628 s
32. CCCNC(=O)C1CCCN(c2ccc(SCC(=O)Nc3ccccc3F)nn2)C1 (centres undefined)  620 s
33. CC1CCN(CCNC(=O)c2nc(CCS(=O)(=O)c3ccc(F)cc3)no2)CC1  620 s
34. CCCc1nc2ccc(CCC(=O)Nc3ccc(OC)c(OC)c3)cc2[nH]1  610 s
35. CCc1cc(=O)n(CC(=O)Nc2cccc(C)c2C)c(N)n1  608 s
36. COc1cccc(CN2CC[C@@H]3CN(S(C)(=O)=O)[C@@H]3C2)c1OC  604 s
37. O=C(NCCN1CCCC1)C1CCN(c2nc(-c3ccc(Cl)cc3)no2)CC1  603 s
38. CC(C)C(=O)Nc1c(-c2ccc(F)cc2)nc2ccccn12  602 s
39. Cn1cnc([N+](=O)[O-])c1Sc1n[nH]c(N)n1  599 s
40. O=C(COc1ccc2c(c1)OCO2)N1CCN(c2cc(N3CCCCC3)ncn2)CC1  587 s
41. CC(C)N1CCC(OCCCNC(=O)CN2CCCc3nc(C4CC4)ncc3C2=O)CC1  576 s
42. COc1cccc(CN2CCC3(CCC3O)CC2)c1OC (centres undefined)  572 s
43. CCCN1CCN(C(=O)c2ccc(-c3ccc(N4CCSCC4)nc3)cc2)CC1  560 s
44. COCCc1noc([C@@H]2CN(Cc3cccc4[nH]ccc34)C[C@H]2CO)n1  554 s
